Assay results from patent US11795204B2 (Zealand Pharma A/S, priority 2012, dated 2023).
Square brackets hold non-standard residues; d marks the D form. Peptide text beside a SMILES is read from it. Dab = NCC[C@H](N)C(=O)O; Aib = CC(C)(N)C(=O)O

Experiments:
[1] = Solubility assessment (turbidity absorbance at 325 nm); details: pH 7.5
Outline: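 Peptide stock 2 mg/ml (A280-quantified) in water at pH 2.5, diluted 1:1 into 100 mM acetate pH 4.0 or 100 mM phosphate pH 7.5. Absorbance at 280 and 325 nm read at ambient temperature, single samples (n=1).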

[2] = Assessment of physical stability (Thioflavin T fibril formation lag-time); assay type: physicochemical; details: 1 mg/ml, 50 mM phosphate pH 7.5, 40° C., 96 hours
Method: A solution containing 1 mg/ml of peptide, 40 μM ThT and 50 mM phosphate buffer, pH 7.5, was loaded in a 96-well black fluorescence plate (clear bottom) in triplicate. Data were collected at fixed intervals of 10 min, each preceded by 300 s of automixing (agitation), over a period of 96 hours at 40° C. The entire experiment was repeated, but without agitation. Physical stability, expressed as lag-time of fibril formation (in hours), was defined as the intersection between two linear regressions representing the initial stable phase and the growth phase.

[3] = Chemical stability assessment (RP-HPLC normalized purity); assay type: physicochemical; details: for Normalized purity pH 4.0 after 14 days: 1 mg/ml in 50 mM acetate buffer pH 4.0, 40° C.; for Normalized purity pH 7.5 after 14 days: 1 mg/ml in 50 mM phosphate buffer pH 7.5, 40° C.
Method: Samples were placed in glass vials and incubated at 40° C. The samples were analysed by reverse-phase HPLC on a C18 column with gradient elution using an acetonitrile/trifluoroacetic acid/water eluent system. The area-percentage (area-%) of the main peak after incubation time T=t (relative to time T=0) was detected by UV spectrometry at 220 nm. The purity was first determined as follows: Purity(area-%)=(area of main peak/total area of all peaks)×100. […] Normalized purity values in Table 2 were determined after 14 days of incubation.

human Glucagon-R = molecular target: T1, human Glucagon-R (Homo sapiens, UniProt P47871); experiment: Glucagon receptor assay (cAMP induction, AlphaScreen); assay type: cell-based; details: HEK293 cells expressing the human Glucagon-R, 15 min at 37° C., read-out: GCG-R EC50 in vitro
T1 construct: expressed in transfected cells
Outline: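 Stable G418-selected clonal cells expressing the receptor were washed, then exposed to rising test peptide concentrations in IBMX-containing assay buffer for 15 min at 37° C. After lysis (≥10 min, room temperature), lysate was incubated 1 h with AlphaScreen donor/acceptor beads and cAMP content read.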

T1 sequence (P47871 26-477): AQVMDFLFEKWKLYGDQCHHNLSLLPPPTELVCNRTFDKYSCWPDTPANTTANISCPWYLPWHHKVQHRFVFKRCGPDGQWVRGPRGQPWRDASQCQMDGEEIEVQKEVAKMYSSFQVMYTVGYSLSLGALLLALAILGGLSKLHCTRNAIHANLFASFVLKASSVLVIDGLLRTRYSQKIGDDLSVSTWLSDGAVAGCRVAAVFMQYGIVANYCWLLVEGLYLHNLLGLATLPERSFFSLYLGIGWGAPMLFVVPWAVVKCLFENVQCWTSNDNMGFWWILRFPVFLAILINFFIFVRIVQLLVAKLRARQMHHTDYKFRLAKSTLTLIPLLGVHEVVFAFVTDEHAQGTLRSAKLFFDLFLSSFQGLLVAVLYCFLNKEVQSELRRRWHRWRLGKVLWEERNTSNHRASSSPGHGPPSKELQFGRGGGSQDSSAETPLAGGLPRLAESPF

| solubility ([1]; phosphate buffer) | Physical Stability at pH 7.5 (agitated) ([2]; with agitation) | Physical Stability at pH 7.5 (non-agitated) ([2]; without agitation) | Compound | Normalized purity pH 4.0 after 14 days [3] | Normalized purity pH 7.5 after 14 days [3] | EC50 (human Glucagon-R) | solubility [1] |
| --- | --- | --- | --- | --- | --- | --- | --- |
| ≥ 1000 µg/mL | FND | FND | CC(C)C[C@H](NC(=O)[C@H](Cc1c[nH]c2ccccc12)NC(=O)[C@H](CCCCN)NC(=O)[C@@H](NC(=O)[C@H](Cc1ccccc1)NC(=O)[C@H](CCC(=O)O)NC(=O)[C@H](CCC(=O)O)NC(=O)[C@H](C)NC(=O)[C@H](CCCNC(=N)N)NC(=O)[C@H](C)NC(=O)C(C)(C)NC(=O)[C@H](CC(=O)O)NC(=O)[C@H](CC(C)C)NC(=O)[C@H](Cc1ccc(O)cc1)NC(=O)[C@H](CCCCN)NC(=O)[C@H](CO)NC(=O)[C@H](Cc1ccc(O)cc1)NC(=O)[C@H](CC(=O)O)NC(=O)[C@H](CO)NC(=O)[C@@H](NC(=O)[C@H](Cc1ccccc1)NC(=O)[C@@H](NC(=O)CNC(=O)[C@H](CCC(N)=O)NC(=O)[C@H](CO)NC(=O)[C@@H](N)Cc1c[nH]cn1)[C@@H](C)O)[C@@H](C)O)C(C)C)C(=O)N[C@@H](CCC(=O)O)C(=O)N[C@@H](CO)C(=O)N[C@H](C(=O)O)[C@@H](C)O [Compound 21] | 89.8% | 93.5% | – | – |
| – | – | – | CC(=O)NCC[C@H](NC(=O)[C@H](CO)NC(=O)[C@@H](N)Cc1c[nH]cn1)C(=O)NCC(=O)N[C@H](C(=O)N[C@@H](Cc1ccccc1)C(=O)N[C@H](C(=O)N[C@@H](CO)C(=O)N[C@@H](CC(=O)O)C(=O)N[C@@H](Cc1ccc(O)cc1)C(=O)N[C@@H](CO)C(=O)N[C@@H](CCCCN)C(=O)N[C@@H](Cc1ccc(O)cc1)C(=O)N[C@@H](CC(C)C)C(=O)N[C@@H](CC(=O)O)C(=O)NC(C)(C)C(=O)N[C@@H](C)C(=O)N[C@@H](CCCNC(=N)N)C(=O)N[C@@H](C)C(=O)N[C@@H](CCC(=O)O)C(=O)N[C@@H](CO)C(=O)N[C@@H](Cc1ccccc1)C(=O)N[C@H](C(=O)N[C@@H](CCCCN)C(=O)N[C@@H](Cc1c[nH]c2ccccc12)C(=O)N[C@@H](CC(C)C)C(=O)N[C@@H](CCC(=O)O)C(=O)N[C@@H](CO)C(=O)N[C@H](C(N)=O)[C@@H](C)O)C(C)C)[C@@H](C)O)[C@@H](C)O [Compound 24] (H-HS[Dab](Ac)GTFTSDYSKYLD[Aib]ARAESFVKWLEST-NH2) | 92.8% | 94.4% | 0.0078 nM | ≥ 1000 µg/mL |
| – | – | – | CC(C)C[C@H](NC(=O)[C@H](Cc1c[nH]c2ccccc12)NC(=O)[C@H](CCCCN)NC(=O)[C@@H](NC(=O)[C@H](Cc1ccccc1)NC(=O)[C@H](CO)NC(=O)[C@H](CCC(=O)O)NC(=O)[C@H](C)NC(=O)[C@H](CCCNC(=N)N)NC(=O)[C@H](C)NC(=O)C(C)(C)NC(=O)[C@H](CC(=O)O)NC(=O)[C@H](CC(C)C)NC(=O)[C@H](Cc1ccc(O)cc1)NC(=O)[C@H](CCCCN)NC(=O)[C@H](CO)NC(=O)[C@H](Cc1ccc(O)cc1)NC(=O)[C@H](CC(=O)O)NC(=O)[C@H](CO)NC(=O)[C@@H](NC(=O)[C@H](Cc1ccccc1)NC(=O)[C@@H](NC(=O)CNC(=O)[C@H](CCC(N)=O)NC(=O)[C@H](CO)NC(=O)[C@@H](N)Cc1c[nH]cn1)[C@@H](C)O)[C@@H](C)O)C(C)C)C(=O)N[C@@H](CCC(=O)O)C(=O)N[C@@H](CO)C(=O)N[C@H](C(=O)O)[C@@H](C)O [Compound 15] (H-HSQGTFTSDYSKYLD[Aib]ARAESFVKWLEST-OH) | 89.1% | 95.1% | 0.03 nM | ≥ 1000 µg/mL |
